Reference: patent publication EP4772509A1, “KINESIN KIF18A INHIBITOR, AND APPLICATION THEREOF” (Shanghai Apeiron Therapeutics Company Limited, priority 2023, dated 2025)
Like-named read-outs stand apart in the source and are kept apart here.

How the values were obtained:
[1] = target: T1, Human KIF18A (amino acid sequence 1-417) (Homo sapiens, UniProt Q8NI77); assay: Enzymatic activity test (ADP-Glo, microtubule-stimulated ATPase); type: biochemical; details: 60 µg/mL microtubules, 25 µM ATP, 2.5 nM KIF18A protein, 120 min at ambient temperature, chemiluminescence; read-out: KIF18A IC50
T1 construct: purchased Viva Biotech (Shanghai) Ltd
T1 sequence (Q8NI77 1-417): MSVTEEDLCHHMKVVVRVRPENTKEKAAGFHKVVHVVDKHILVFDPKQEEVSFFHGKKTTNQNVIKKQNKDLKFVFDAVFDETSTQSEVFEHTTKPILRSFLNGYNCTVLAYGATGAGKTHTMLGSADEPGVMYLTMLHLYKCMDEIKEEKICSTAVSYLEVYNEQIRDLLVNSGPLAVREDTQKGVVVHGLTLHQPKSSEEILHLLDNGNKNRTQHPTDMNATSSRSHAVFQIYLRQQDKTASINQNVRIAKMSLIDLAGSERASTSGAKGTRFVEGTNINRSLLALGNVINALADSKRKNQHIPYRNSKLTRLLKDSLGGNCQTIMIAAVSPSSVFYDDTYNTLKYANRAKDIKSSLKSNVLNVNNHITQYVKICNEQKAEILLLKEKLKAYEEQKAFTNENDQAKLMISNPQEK
Description: Materials: Human KIF18A (amino acid sequence 1-417) was purchased from Viva Biotech (Shanghai) Ltd.; the ADP-Glo™ protein kinase kit was acquired from Promega, USA; tubulin was sourced from Cytoskeleton, USA; and the 384-well assay plate and Envision multifunctional microplate reader were obtained from PerkinElmer, USA.
Enzymatic Activity Test: The compound powder was dissolved in DMSO to prepare a stock solution of 10 mM. Then gradient dilution was performed for the compounds in the microplate to achieve a final concentration of 0-10 µM. Then, 2.5 µL each of tubulin, compound, ATP, and KIF18A protein were added to the microplate in sequence for reaction at ambient temperature for 120 min. The final concentrations in the enzyme reaction were 60 µg/mL for microtubules, 25 µM for ATP, and 2.5 nM for KIF18A protein. After the enzyme reaction, 10 µL of ADP-GLO reaction reagent was added to each well and incubated at room temperature for 30 min. After that, 20 µL of detection reagent was added to each well and incubated at room temperature for 30 min in the dark. Finally, chemiluminescence detection was performed using the PerkinElmer Envision.

[2] = test system: OVCAR3 cells; assay: Cell proliferation activity test (CyQUANT Direct); type: cell-based; details: 3 days, 0.2% DMSO, CyQUANT fluorescence
Description: Materials and Cells: OVCAR3 cells were purchased from Nanjing Cobioer Biosciences Co., Ltd. RPMI-1640 medium, fetal bovine serum, and the CyQUANT Direct Cell Proliferation Assay kit were purchased from Thermo Fisher Scientific, USA; 96-well cell culture plates were sourced from Corning, USA.
Cell Culture: OVCAR3 cells were cultured with RPMI-1640 medium containing 10% fetal bovine serum and incubated in a 5% CO2 incubator at 37°C. Only cells in the logarithmic growth phase could be used for the test.
OVCAR3 cells were inoculated into a 96-well cell culture plate at 90 µL per well and incubated overnight in a 5% CO2 incubator at 37°C. The compound powder was dissolved in DMSO to prepare a stock solution of 10 mM. Then gradient dilution was performed for the compounds in the microplate to achieve a final concentration of 0-10 µM. 10 µL of cell culture medium containing compounds was added to each well to make the final DMSO content 0.2%. The cell plates were incubated in a 5% CO2 incubator at 37°C for 3 days. 100 µL of CyQUANT detection reagent was added to each well, reacted at 37°C for 60 min, and fluorescence detection was performed using the PerkinElmer Envision.

[3] = test system: HT29 cells; assay: CyQuant cell proliferation activity test; type: cell-based; details: HT29 at 2000 cells per well, 3 days, 0.2% DMSO, XLFIT
Description: Materials and Cells: HT29 cells were purchased from Nanjing Cobioer Biosciences Co., Ltd.; RPMI-1640 medium, fetal bovine serum, Trypsin-EDTA (0.25%), 96-well plates, and CyQuant reagents were purchased from ThermoFisher (USA); DMSO was purchased from SIGMA (USA).
Cell Culture: HT29 cells were cultured with RPMI-1640 containing 10% fetal bovine serum under the condition of 37°C and 5% CO2. Only cells in the logarithmic growth phase could be used for the test.
Cell Proliferation Activity Test: CyQuant reagent was used to detect the proliferation inhibitory activity of compounds on HT29 cells. The cell density was adjusted, and 100 µL per well was inoculated into a 96-well plate (HT29 at 2000 cells per well), then incubated overnight at 37°C and 5% CO2. Add compounds of various target concentrations (initial concentration of 3000 nM, 3-fold dilution, 9 concentration gradients), and make the DMSO content 0.2%. The cell plate was incubated at 37°C in 5% CO2 for 3 days. CyQuant reagent was added and incubated for 1 h. The plates were read by Envision, and IC50 was calculated using XLFIT.

Compound | IC50 [1] [nM] | IC50 [2] [nM] | IC50 ([3]; read-out: HT-29 IC50) [nM] | IC50 ([2]; Homo sapiens, OVCAR-3, 72 h) [nM] | IC50 ([3]; Homo sapiens, HT-29, 72 h) [nM]
2-Hydroxy-N-(1^4,1^4,5^1,5^1-tetrafluoro-2^6-methyl-4-dioxo-5^2,5^3-dihydro-5^1H-3-aza-2(2,4)-pyrimidin-1(1,3),6(1,4)-dipipe ridin-5(4,5)-benzofurancyclononane-8-en-5^7-yl)-methanesulfonamide [Example 21] | 450 | 78 | 85 | – | –
CC(=O)c1cc2c(cc1NS(=O)(=O)CCO)N1CCC(C/C=C/C3CN(CCC3(F)F)c3nc(C)cc(n3)-c3cn-2nn3)CC1 (racemic) [Example 88, N-((3^4Z,7E)-4^5-acetyl-1^4,1^4-difluoro-2^6-methyl-3^1H-2(2,4)-pyrimidin-1(1,3),5(1,4)-dipiperidin-3(4,1)-triazole-4(1,2)-benzocyclooct-7-en-4^4-yl)-2-hydroxyethane-1-sulfonamide] | > 3000 | – | – | > 3000 | > 3000
Cc1cc2nc(n1)N1CCC(F)(F)C(CCCc3ccc(cc3)-c3cc(NS(=O)(=O)CCO)ccc3C(=O)N2)C1 (single isomer, unassigned) [Example 46B, N-(1^4,1^4-difluoro-2^6-methyl-4-oxo-3-aza-2(2,4)-pyrimidin-1(1,3)-piperidin-5(1,2),6(1,4)-diphenylheterocyclononane-5^4-yl)-2-hydroxyethane-1-sulfonamide] | 57 | – | 36 | – | –
Cc1cc2nc(n1)N1CCC(F)=C(/C=C\CC3CCN(CC3)c3cc(NS(=O)(=O)CCO)c4c(c3C(=O)N2)CCC4=O)C1 [Example 3, N-(1^4-fluoro-2^6-methyl-5^1,4-dioxo-11,1^2,1^3,1^6,5^2,5^3-hexahydro-5^1H-3-aza-^2(2,4)-pyrimidin-1(1,5)-pyridin-6(1,4)-piperidin-5(4,5)-indenoheterononane-8-en-5^7-yl)-2-hydroxyethane-1-sulfonamide] | 566 | – | – | 1130 | –
Cc1cc2nc(n1)N1CCC(F)(F)C(CC=Cc3ccc(nc3)-c3cc(NS(=O)(=O)CCO)ccc3C(=O)N2)C1 (stereo not drawn) [Example 48, N-(1^4,1^4-difluoro-2^6-methyl-4-oxo-3-aza-2(2,4)-pyrimidin-6(2,5)-pyridin-1(1,3)-piperidin-5(1,2)-phenylheterocyclonon-7-en-5^4-yl)-2-hydroxyethane-1-sulfonamide] | – | – | – | 1210 | 1560
Cc1cc2nc(n1)N1CCC(F)(F)C(CCCc3ccc(cc3)-c3cc(NS(=O)(=O)CCO)c(F)cc3C(=O)N2)C1 (stereo not drawn) [Example 53, 2-Hydroxy-N-(1^4,1^4,5^5-trifluoro-2^6-methyl-4-oxo-3-aza-2(2,4)-pyrimidin-1(1,3)-piperidin-5(1,2),6(1,4)-diphenylheterocyclononane-5^4-yl)ethane-1-sulfonamide] | 49 | – | – | 46 | –
Cc1cc2nc(n1)N1CCC(F)(F)C(/C=C\c3csc(c3)-c3cc(NS(=O)(=O)CCO)ccc3C(=O)N2)C1 (stereo not drawn) [Example 67, N-(2^4,2^4-difluoro-1^6-methyl-7-oxo-8-aza-1(2,4)-pyrimidin-2(1,3)-piperidin-5(2,4)-thiophene-6(1,2)-benzeneheterocyclooct-3-en-6^5-yl)-2-hydroxyethane-1-sulfonamide] | 86 | – | – | 481 | –
Cc1cc2nc(n1)N1CCC(F)=C(/C=C\CC3CCN(CC3)c3cc(NS(=O)(=O)CCO)ccc3-n3cc-2nn3)C1 [Example 82, N-((3^4Z,7Z)-1^4-fluoro-2^6-inethyl-1^1,1^2,1^3,1^6-tetrahydro-3^1H-2(2,4)-pyrimidin-1(1,5)-pyridin-5(1,4)-piperidin-3(4,1)-triazole-4(1,2)-benzylcyclooct-7-en-4^4-yl)-2-hydroxyethane-1-sulfonamide] | 1020 | – | – | 1280 | –
Cc1cc2nc(n1)N1CCC(F)(F)C(/C=C/CC3CCN(CC3)c3cc(NS(=O)(=O)CCO)c(C(=O)N(C)C)cc3-n3cc-2nn3)C1 (stereo not drawn) [Example 93, (3^4Z,7E)-1^4,1^4-difluoro-4^4-((2-hydroxyethyl)sulfonamido)-2^6-methyl-3^1H-2(2,4)-pyrimidin-1(1,3),5(1,4)-dipiperidin-3(4,1)-triazole-4(1,2)-benzocyclooct-7-en-4^5carboxamide] | – | – | – | 91 | 194

Continued, in another order:

IC50 [1] [nM] | IC50 [2] [nM] | IC50 ([3]; read-out: HT-29 IC50) [nM] | Compound | IC50 ([2]; Homo sapiens, OVCAR-3, 72 h) [nM] | IC50 ([3]; Homo sapiens, HT-29, 72 h) [nM]
> 3000 | 2790 | 2790 | Cc1cc2nc(n1)N1CCC(F)(F)C(/C=C\CC3CCN(CC3)c3cc(NS(=O)(=O)CCO)c4ccccc4c3C(=O)N2)C1 (single isomer, unassigned) [Example 1A, (cis)-N-(1^4,1^4-difluoro-2^6-methyl-4-oxo-3-aza-2(2,4)-pyrimidin-1(1,3),6(1,4)-dipiperidin-5(1,2)-naphthacyclonon-8-en-5^4-yl)-2-hydroxyethane-1-sulfonamide] | – | –
220 | 22 | 22 | Cc1cc2nc(n1)N1CCC(F)(F)C(/C=C\CC3CCN(CC3)c3cc(NS(=O)(=O)CCO)c4ccccc4c3C(=O)N2)C1 (single isomer, unassigned) [Example 1B, (cis)-N-(1^4,1^4-difluoro-2^6-methyl-4-oxo-3-aza-2(2,4)-pyrimidin-1(1,3),6(1,4)-dipiperidin-5(1,2)-naphthacyclonon-8-en-5^4-yl)-2-hydroxyethane-1-sulfonamide] | – | –
1060 | 1020 | 1020 | Cc1cc2nc(n1)N1CCC(F)(F)C(/C=C/CC3CCN(CC3)c3cc(NS(=O)(=O)CCO)c4ccccc4c3C(=O)N2)C1 (single isomer, unassigned) [Example 1C, (trans)-N-(1^4,1^4-difluoro-2^6-methyl-4-oxo-3-aza-2(2,4)-pyrimidin-1(1,3),6(1,4)-dipiperidin-5(1,2)-naphthacyclonon-8-en-5 ^4-yl)-2-hydroxyethane-1-sulfonamide] | – | –
186 | 38 | – | Cc1cc2nc(n1)C1CN(/C=C/CC3CCN(CC3)c3cc(NS(=O)(=O)CCO)ccc3-c3cn-2nn3)CCC1(F)F (single isomer, unassigned) [Example 84C, N-((3^4Z,7E)-1^4,1^4-difluoro-2^6-methyl-3^1H-2(2,4)-pyrimidin-1(1,3),5(1,4)-dipiperidin-3(1,4)-triazole-4(1,2)-benzocyclooct-7-en-4^4-yl)-2-hydroxyethane-1-sulfonamide] | – | –
284 | > 3000 | – | Cc1cc2nc(n1)C1CN(/C=C/CC3CCN(CC3)c3cc(NS(=O)(=O)CCO)ccc3-c3cn-2nn3)CCC1(F)F (single isomer, unassigned) [Example 84D, N-((3^4Z,7E)-1^4,1^4-difluoro-2^6-methyl-3^1H-2(2,4)-pyrimidin-1(1,3),5(1,4)-dipiperidin-3(1,4)-triazole-4(1,2)-benzocyclooct-7-en-4^4-yl)-2-hydroxyethane-1-sulfonamide] | – | –
